We go through 1 compound from patent US20250230149A1, “MGLUR5 MODULATING COMPOUNDS, COMPOSITIONS, AND METHODS OF USE” (Allyx Therapeutics, Inc., priority 2022, published 2025).

Assay type in all cases: in vitro ADME
In one data set the target is T1, P-glycoprotein (P-gp) (Homo sapiens, UniProt P08183).
T1 construct: host or cells: unspecified cell test systems
Description: In vitro inhibition of human transporter P-gp. Particulars: in vitro cell test system; read-out: IC50, inhibition of probe substrate transport via P-gp. The protocol: (§1) The in vitro potential for Compound 1 Form A to be an inhibitor of the human transporters P-glycoprotein (P-gp), […] (OATP) 1B1 and OATP1B3 was assessed in various in vitro cell test systems, and of BSEP in membrane vesicles.
(§2) A decrease in the transporter-mediated activity of probe substrate in the presence of a positive control inhibitor, determined from incubations run alongside test compound, confirmed that the in vitro test systems were capable of identifying transporter inhibitors.

In the next data set the target is T2, OATP1B1 (Homo sapiens, UniProt Q9Y6L6).
T2 construct: host or cells: unspecified cell test systems
The experiment in a line: In vitro inhibition of human transporter OATP1B1. Particulars: in vitro cell test system; read-out: IC50, inhibition of probe substrate transport via OATP1B1. As to the method:
as §1, §2

Another data set concerns the target T3, OATP1B3 (Homo sapiens, UniProt Q9NPD5).
T3 construct: host or cells: unspecified cell test systems
Description: In vitro inhibition of human transporter OATP1B3. The conditions noted are these: in vitro cell test system; read-out: IC50, inhibition of probe substrate transport via OATP1B3. As to the method:
as §1, §2

The target of the next data set is BSEP (Homo sapiens, UniProt O95342). The experiment in a line: In vitro inhibition of BSEP in membrane vesicles. Particulars: read-out: IC50, inhibition of probe substrate transport via BSEP. The protocol: as §1, §2
The target of data set [1] is T4, CYP1A2 (Homo sapiens, UniProt P05177).
T4 construct: purchased
T4 sequence (P05177 1-516): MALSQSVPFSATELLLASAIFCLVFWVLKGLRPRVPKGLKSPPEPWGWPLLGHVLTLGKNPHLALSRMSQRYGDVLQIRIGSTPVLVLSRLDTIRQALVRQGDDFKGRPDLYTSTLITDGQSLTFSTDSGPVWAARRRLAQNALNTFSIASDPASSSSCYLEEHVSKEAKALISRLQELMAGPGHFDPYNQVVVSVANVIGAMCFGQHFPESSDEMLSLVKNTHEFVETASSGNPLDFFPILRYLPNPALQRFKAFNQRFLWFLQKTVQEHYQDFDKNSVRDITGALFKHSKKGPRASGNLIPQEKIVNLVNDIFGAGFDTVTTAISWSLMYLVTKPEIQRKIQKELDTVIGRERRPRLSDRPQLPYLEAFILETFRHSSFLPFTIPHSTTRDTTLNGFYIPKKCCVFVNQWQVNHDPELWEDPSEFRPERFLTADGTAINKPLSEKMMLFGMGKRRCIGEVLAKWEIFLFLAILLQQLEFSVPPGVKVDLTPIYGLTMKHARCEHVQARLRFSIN
The experiment in a line: CYP450 reaction phenotyping in Supersomes, CYP1A2. An excerpt:
(§3) In Vitro CYP450 Reaction Phenotyping Study in Supersomes™ Over-Expressing Human CYP Enzymes The CYPP450 enzymes involved in the Phase I metabolism of Compound 1 Form A were investigated in vitro. […] No evidence of Compound 1 metabolism by CYP2B6, CYP2C8, CYP2C9 and CYP2C19 was observed.

For data set [2], the target named is T5, CYP2D6 (Homo sapiens, UniProt P10635).
T5 construct: purchased
Description: CYP450 reaction phenotyping in Supersomes, CYP2D6.
Description: as §3

Data set [3] has as its target T6, CYP3A4 (Homo sapiens, UniProt P08684).
T6 construct: purchased
Description: CYP450 reaction phenotyping in Supersomes, CYP3A4.
Description: as §3

In data set [4] the target is T4, CYP1A2. The experiment in a line: CYP inhibition in human liver microsomes, CYP1A2. An excerpt:
(§4) In Vitro CYP Inhibition of CYP1A2, CYP2C8, CYP2C9, CYP2C19, CYP2D6 and CYP3A4 in Human Liver Microsomes This study assessed the potential inhibitory effect of Compound 1 Form A toward CYP1A2, CYP2C8, CYP2C9, CYP2C19, CYP2D6 and CYP3A4. Known inhibitors of each CYP were used as positive controls.

For the next data set, the target named is T7, CYP2C8 (Homo sapiens, UniProt P10632).
T7 construct: purchased
The experiment in a line: CYP inhibition in human liver microsomes, CYP2C8.
Description: as §4
(Liver microsomes are vesicles of endoplasmic reticulum, rich in cytochrome P450 enzymes.)

Another data set deals with T8, CYP2C9 (Homo sapiens, UniProt P11712).
T8 construct: purchased
Description: CYP inhibition in human liver microsomes, CYP2C9.
Description: as §4

The target in data set [5] is T5, CYP2D6. Description: CYP inhibition in human liver microsomes, CYP2D6.
Description: as §4

The target in data set [6] is T6, CYP3A4. Description: CYP inhibition in human liver microsomes, CYP3A4.
Description: as §4

In data set [7] the target is T6, CYP3A4. The experiment in a line: Metabolism dependent inhibition in human liver microsomes, CYP3A4. An excerpt:
(§5) In Vitro Metabolite Dependent Inhibition of CYP2D6 and CYP3A4 Study in Human Liver Microsomes
(§6) This study assessed the metabolism dependent inhibition potential of Compound 1 Form A toward CYP3A4 and CYP2D6 in human liver microsomes. Troleandomycin and paroxetine, known metabolism dependent inhibitors of CYP3A4 and CYP2D6, respectively were used as positive controls.

Data set [8] deals with T5, CYP2D6. Description: Metabolism dependent inhibition in human liver microsomes, CYP2D6.
Description: as §5, §6

Another data set has as its target CYP2C19 (Homo sapiens, UniProt P33261). The experiment in a line: CYP inhibition in human liver microsomes, CYP2C19. Also on record: CYP2D6 and CYP3A4 in Human Liver Microsomes; from tissue; host or cells: human liver microsomes.
Description: as §4

Each structure is given as a SMILES string.

T6 sequence (P08684 whole entry): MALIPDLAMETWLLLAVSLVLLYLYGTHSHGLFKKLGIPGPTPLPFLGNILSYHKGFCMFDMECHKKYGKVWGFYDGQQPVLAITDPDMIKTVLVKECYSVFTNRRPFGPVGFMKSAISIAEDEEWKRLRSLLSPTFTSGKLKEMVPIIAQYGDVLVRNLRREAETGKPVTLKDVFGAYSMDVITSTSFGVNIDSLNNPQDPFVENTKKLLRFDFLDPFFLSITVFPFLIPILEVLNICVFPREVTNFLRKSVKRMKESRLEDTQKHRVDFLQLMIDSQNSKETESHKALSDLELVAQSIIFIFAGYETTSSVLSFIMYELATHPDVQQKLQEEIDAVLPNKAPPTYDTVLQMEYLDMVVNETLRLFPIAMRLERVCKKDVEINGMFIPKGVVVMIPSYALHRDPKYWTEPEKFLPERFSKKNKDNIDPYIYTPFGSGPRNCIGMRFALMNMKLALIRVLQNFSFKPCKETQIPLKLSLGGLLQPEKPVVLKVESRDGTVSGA
T5 sequence (P10635 whole entry): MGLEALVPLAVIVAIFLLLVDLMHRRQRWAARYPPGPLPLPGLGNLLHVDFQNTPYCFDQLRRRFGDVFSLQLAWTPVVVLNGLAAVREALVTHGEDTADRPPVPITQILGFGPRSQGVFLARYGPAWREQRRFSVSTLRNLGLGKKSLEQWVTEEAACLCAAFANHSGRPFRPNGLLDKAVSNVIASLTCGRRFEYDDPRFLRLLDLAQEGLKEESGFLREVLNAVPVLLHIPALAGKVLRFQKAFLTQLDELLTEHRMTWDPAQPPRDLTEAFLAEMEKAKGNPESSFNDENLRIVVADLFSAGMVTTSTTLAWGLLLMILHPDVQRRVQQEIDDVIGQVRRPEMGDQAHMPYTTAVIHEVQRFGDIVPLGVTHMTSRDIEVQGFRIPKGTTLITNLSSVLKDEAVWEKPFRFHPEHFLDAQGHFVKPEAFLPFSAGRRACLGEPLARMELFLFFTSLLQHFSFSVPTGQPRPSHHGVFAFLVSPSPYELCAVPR
T7 sequence (P10632 whole entry): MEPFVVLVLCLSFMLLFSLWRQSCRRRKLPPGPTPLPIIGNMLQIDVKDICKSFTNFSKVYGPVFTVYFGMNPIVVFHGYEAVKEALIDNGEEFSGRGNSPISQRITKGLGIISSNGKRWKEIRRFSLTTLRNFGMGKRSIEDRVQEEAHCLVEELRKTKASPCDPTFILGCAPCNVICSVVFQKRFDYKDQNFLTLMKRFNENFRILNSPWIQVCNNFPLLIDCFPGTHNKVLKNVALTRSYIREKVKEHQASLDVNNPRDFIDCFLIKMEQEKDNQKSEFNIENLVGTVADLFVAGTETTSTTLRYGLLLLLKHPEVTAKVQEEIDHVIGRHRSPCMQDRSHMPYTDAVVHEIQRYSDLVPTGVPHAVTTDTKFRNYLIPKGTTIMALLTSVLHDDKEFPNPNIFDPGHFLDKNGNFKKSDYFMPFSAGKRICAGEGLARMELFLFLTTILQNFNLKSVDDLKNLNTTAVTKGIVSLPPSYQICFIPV
Chain of BSEP (O95342 whole entry): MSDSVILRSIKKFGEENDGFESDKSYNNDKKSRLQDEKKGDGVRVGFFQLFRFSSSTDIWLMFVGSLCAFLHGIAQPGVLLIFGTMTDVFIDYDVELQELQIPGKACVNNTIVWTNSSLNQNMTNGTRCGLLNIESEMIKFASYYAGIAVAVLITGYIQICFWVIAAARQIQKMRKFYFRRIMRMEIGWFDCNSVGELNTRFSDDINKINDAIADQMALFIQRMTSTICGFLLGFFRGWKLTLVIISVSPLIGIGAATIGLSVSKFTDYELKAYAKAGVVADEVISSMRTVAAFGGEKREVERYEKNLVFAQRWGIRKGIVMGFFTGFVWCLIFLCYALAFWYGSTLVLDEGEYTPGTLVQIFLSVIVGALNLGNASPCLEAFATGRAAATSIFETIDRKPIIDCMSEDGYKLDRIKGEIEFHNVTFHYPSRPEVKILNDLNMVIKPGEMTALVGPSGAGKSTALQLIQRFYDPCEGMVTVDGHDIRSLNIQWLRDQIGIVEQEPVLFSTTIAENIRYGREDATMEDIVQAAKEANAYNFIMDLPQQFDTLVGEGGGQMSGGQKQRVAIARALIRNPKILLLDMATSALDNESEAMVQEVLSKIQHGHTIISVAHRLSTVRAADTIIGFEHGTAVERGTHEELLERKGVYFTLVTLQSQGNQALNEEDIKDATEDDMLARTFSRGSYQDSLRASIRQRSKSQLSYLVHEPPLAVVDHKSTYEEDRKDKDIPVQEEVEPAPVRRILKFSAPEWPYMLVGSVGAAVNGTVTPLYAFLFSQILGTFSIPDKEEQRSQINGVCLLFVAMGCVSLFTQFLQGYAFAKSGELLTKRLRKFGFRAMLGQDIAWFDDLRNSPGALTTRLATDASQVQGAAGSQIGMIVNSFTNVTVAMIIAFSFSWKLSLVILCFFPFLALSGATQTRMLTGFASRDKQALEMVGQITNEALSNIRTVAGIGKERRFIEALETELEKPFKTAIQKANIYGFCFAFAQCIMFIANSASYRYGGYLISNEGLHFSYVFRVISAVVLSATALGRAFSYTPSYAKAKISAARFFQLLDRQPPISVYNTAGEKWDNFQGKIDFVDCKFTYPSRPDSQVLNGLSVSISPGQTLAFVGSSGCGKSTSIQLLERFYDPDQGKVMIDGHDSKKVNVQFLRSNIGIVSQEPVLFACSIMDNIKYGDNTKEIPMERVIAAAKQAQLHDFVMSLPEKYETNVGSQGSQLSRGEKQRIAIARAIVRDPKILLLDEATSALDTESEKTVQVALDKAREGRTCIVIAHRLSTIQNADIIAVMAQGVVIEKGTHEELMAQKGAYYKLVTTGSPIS
T8 sequence (P11712 whole entry): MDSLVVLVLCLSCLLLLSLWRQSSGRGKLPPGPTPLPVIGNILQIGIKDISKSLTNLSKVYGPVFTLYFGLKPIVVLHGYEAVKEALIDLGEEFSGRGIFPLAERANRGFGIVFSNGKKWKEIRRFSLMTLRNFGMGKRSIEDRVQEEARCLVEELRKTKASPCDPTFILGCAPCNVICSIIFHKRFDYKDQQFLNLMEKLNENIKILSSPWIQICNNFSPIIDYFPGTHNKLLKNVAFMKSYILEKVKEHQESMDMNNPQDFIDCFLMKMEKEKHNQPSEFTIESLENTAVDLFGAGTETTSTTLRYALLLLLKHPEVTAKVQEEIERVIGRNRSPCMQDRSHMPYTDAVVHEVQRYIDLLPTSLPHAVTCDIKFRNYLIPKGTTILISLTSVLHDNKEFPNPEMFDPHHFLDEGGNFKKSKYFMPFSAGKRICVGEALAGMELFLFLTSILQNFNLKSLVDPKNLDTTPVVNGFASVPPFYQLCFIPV
T2 sequence (Q9Y6L6 whole entry): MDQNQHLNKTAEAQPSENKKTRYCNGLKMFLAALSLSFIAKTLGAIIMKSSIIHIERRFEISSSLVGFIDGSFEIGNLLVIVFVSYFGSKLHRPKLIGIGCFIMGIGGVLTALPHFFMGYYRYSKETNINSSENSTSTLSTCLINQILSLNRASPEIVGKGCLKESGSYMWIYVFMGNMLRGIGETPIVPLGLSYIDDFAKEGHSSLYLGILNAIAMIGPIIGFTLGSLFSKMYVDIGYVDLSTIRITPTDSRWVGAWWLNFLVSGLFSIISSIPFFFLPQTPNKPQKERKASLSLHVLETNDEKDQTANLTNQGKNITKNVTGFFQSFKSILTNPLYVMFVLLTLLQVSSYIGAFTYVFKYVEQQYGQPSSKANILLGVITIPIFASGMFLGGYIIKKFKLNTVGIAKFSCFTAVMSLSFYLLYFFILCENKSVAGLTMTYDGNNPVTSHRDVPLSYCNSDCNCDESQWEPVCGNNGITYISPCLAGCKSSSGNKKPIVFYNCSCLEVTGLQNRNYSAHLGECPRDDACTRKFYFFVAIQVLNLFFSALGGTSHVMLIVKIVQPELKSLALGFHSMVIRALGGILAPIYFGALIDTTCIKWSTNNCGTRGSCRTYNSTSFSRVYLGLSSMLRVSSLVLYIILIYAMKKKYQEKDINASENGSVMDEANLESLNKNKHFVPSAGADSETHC
Chain of CYP2C19 (P33261 whole entry): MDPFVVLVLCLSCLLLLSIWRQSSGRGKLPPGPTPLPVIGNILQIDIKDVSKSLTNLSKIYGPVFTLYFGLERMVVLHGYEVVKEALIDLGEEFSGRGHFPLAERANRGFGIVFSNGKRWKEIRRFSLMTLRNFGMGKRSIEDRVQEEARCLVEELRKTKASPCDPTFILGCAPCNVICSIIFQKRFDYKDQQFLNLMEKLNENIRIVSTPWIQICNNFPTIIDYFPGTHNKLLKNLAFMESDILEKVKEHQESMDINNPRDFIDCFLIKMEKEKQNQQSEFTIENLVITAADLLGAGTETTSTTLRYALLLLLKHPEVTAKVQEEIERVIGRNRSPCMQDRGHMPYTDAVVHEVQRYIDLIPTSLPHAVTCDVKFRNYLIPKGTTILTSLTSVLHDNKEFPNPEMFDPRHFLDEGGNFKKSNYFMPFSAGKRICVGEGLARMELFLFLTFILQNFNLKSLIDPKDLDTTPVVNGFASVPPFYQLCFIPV

As a reminder, the IC50 is the point on the concentration scale where inhibition reaches its midpoint. A word on the half-life: it is the time in which the quantity being followed falls by half. Low values mean fast loss, high ones slow loss. Turning to `O=C1N[C@H](c2cncc(C#Cc3ccccc3)c2)[C@@H](c2ccccc2Cl)O1` [Compound 1 Form A, (4R,5R)-5-(2-chlorophenyl)-4-(5-(phenylethynyl)pyridin-3-yl)oxazolidin-2-one], the IC50 amounted to 27.7 µM at P-glycoprotein (P-gp); 6.74 µM on OATP1B1; 32 µM on OATP1B3; 13.9 µM on BSEP; 1.95 µM against CYP1A2 [4]; 52.1 µM against CYP2C8. Further, the values for the IC50 against CYP2C9, against CYP3A4 [6] (atorvastatin only) and at CYP2C19 were 12.4 µM, 55.7 µM and 6.17 µM, respectively. Besides, the “predicted contribution to total metabolism” value is given as 43.1% at CYP1A2 [1] (CYP1A2, relative activity of factors method); 18% at CYP2D6 [2] (CYP2D6, relative activity of factors method); 38.9% on CYP3A4 [3] (CYP3A4, relative activity of factors method). Besides, the CLint was found to be 0.261 μL/min/pmol CYP on CYP1A2 [1] (Supersomes, CYP1A2); 0.984 μL/min/pmol CYP at CYP2D6 [2] (Supersomes, CYP2D6); 0.0786 μL/min/pmol CYP on CYP3A4 [3] (Supersomes, CYP3A4). For the same compound, the half-life on CYP1A2 [1] (human, Supersomes over-expressing human CYP1A2, Supersomes, CYP1A2) stood at 1.07 h; at CYP2D6 [2] (human, Supersomes over-expressing human CYP2D6, Supersomes, CYP2D6), 0.233 h; at CYP3A4 [3] (human, Supersomes over-expressing human CYP3A4, Supersomes, CYP3A4), 2.93 h. Also, on CYP2D6 [5], the “inhibition of CYP2D6” value is on record as “no inhibition”. Also, the “inhibition of CYP3A4” value against CYP3A4 [6] (midazolam as substrate) and against CYP3A4 [6] (nifedipine as substrate) was “no inhibition” each time. At CYP3A4 [7], the “metabolism dependent inhibition of CYP3A4” value is given as “not a metabolism dependent inhibitor”. In addition, the “metabolism dependent inhibition of CYP2D6” value on CYP2D6 [8] was “not a metabolism dependent inhibitor”.
